Key:
[1] = biodistribution study in the mouse (Example 22); type: in vivo, souris; details: souris swiss femelles, injection intraveineuse
Protocol: L'étude de la biodistribution des radioligands chez la souris, permet d'apprécier l'intensité relative de la fixation cardiaque de la molécule et son évolution dans le temps.
Après marquage à l'iode 123 et purification par CLHP 20µCi environ de produit sont mis en solution dans 5 ml d'une solution : éthanol 20%-sérum physiologique 80%. Après injection intraveineuse de 25 µl de cette solution dans la queue de souris vigiles (souris swiss femelles de 20 à 25 g), celles-ci (5 à chaque fois) sont sacrifiées à différents temps après l'injection. On mesure pour chaque souris les activités cardiaques, hépatique, rénale et pulmonaire. Les résultats sont exprimés en pourcentage de la dose injectée par gramme d'organe.
Le CGP12177 étant la référence, un lot de souris a été étudié après injection de CGP 12177 marqué au tritium.

[2] = octanol-water partition coefficient at room temperature; type: physicochemical; details: pH 7
[3] = test system: récepteurs β adrénergiques; test: isolated perfused rat heart (Langendorff), antagonism of isoprenaline on dP/dt max; details: for DP/dt max: n=6
Protocol: Dans cet exemple, on teste la propriété pharmacologique antagoniste du composé 6 vis-à-vis des récepteurs β adrénergiques.
L'expérience est conduite sur coeur de rat isolé et perfusé selon la technique de Langendorff.
Après une préperfusion de 25 minutes avec une solution de Krebs-Henseleit, le coeur est perfusé avec de l'isoprénaline à la concentration de 10^-8M pendant 10 minutes; puis avec une solution d'isoprénaline à 10^-8M associée à la molécule à tester à la concentration de 10^-6M.
Si la molécule à tester diminue la dP/dt max en présence d'isoprénaline, on pourra affirmer que cette molécule se comporte comme un antagoniste de l'isoprénaline vis-à-vis des récepteurs β adrénergiques.

[4] = Isoprénaline + molécule (10^e+8 min), isoprénaline 10^-8M, test molecule 10^-6M

Compound	Biodistribution Foie ([1]; 2')	Biodistribution Rein ([1]; 2')	Biodistribution Foie ([1]; 5')	Biodistribution Rein ([1]; 5')	Biodistribution Foie ([1]; 10')	Biodistribution Rein ([1]; 10')	Biodistribution Coeur ([1]; 15")	Biodistribution Foie ([1]; 15")	Biodistribution Poumon ([1]; 15")	Biodistribution Rein ([1]; 15")	Biodistribution Coeur ([1]; 15')	Biodistribution Foie ([1]; 15')	Biodistribution Poumon ([1]; 15')	Biodistribution Rein ([1]; 15')	Biodistribution Coeur ([1]; 2 min.)	Biodistribution Poumon ([1]; 2 min.)	Biodistribution Coeur ([1]; 5 min.)	Biodistribution Poumon ([1]; 5 min.)	Biodistribution Coeur ([1]; 10 min.)	Biodistribution Poumon ([1]; 10 min.)	further results
1-[4-(2-iodoéthylènamido)phénoxy]-3-isopropylaminopropan-2-ol [composé 15]	6 ± 0,75 pourcentage de la dose injectée par gramme d'organe	20,9 ± 2,5 pourcentage de la dose injectée par gramme d'organe	3,6 ± 0,4 pourcentage de la dose injectée par gramme d'organe	13,3 ± 0,6 pourcentage de la dose injectée par gramme d'organe	2,6 ± 0,2 pourcentage de la dose injectée par gramme d'organe	7,2 ± 0,4 pourcentage de la dose injectée par gramme d'organe	16,2 ± 2,1 pourcentage de la dose injectée par gramme d'organe	4,8 ± 0,2 pourcentage de la dose injectée par gramme d'organe	55 ± 12 pourcentage de la dose injectée par gramme d'organe	17,1 ± 1,2 pourcentage de la dose injectée par gramme d'organe	3,2 ± 0,2 pourcentage de la dose injectée par gramme d'organe	2,6 ± 0,2 pourcentage de la dose injectée par gramme d'organe	11,2 ± 2,2 pourcentage de la dose injectée par gramme d'organe	6,3 ± 1 pourcentage de la dose injectée par gramme d'organe	14,4 ± 0,9 pourcentage de la dose injectée par gramme d'organe	34 ± 6 pourcentage de la dose injectée par gramme d'organe	8,4 ± 0,3 pourcentage de la dose injectée par gramme d'organe	25 ± 6 pourcentage de la dose injectée par gramme d'organe	3,6 ± 0,7 pourcentage de la dose injectée par gramme d'organe	13,2 ± 3,1 pourcentage de la dose injectée par gramme d'organe	Biodistribution Coeur ([1]; 30'): 2,2 ± 0,15 pourcentage de la dose injectée par gramme d'organe; Biodistribution Foie ([1]; 30'): 2,1 ± 0,1 pourcentage de la dose injectée par gramme d'organe; Biodistribution Poumon ([1]; 30'): 8,4 ± 0,8 pourcentage de la dose injectée par gramme d'organe; Biodistribution Rein ([1]; 30'): 4,8 ± 0,6 pourcentage de la dose injectée par gramme d'organe; Coefficient de partage octanol-eau à pH 7 [2]: 2,91
1-{4-[2-(2-iodoéthoxy) éthoxy]phénoxy}-3-isopropyl-aminopropan-2-ol [composé 16]	3,6 ± 0,5 pourcentage de la dose injectée par gramme d'organe	16,4 ± 3,6 pourcentage de la dose injectée par gramme d'organe	7,2 ± 1,6 pourcentage de la dose injectée par gramme d'organe	19,5 ± 5 pourcentage de la dose injectée par gramme d'organe	7,8 ± 1,6 pourcentage de la dose injectée par gramme d'organe	15,4 ± 2 pourcentage de la dose injectée par gramme d'organe	20,4 ± 3,8 pourcentage de la dose injectée par gramme d'organe	1,5 ± 0,8 pourcentage de la dose injectée par gramme d'organe	112 ± 37 pourcentage de la dose injectée par gramme d'organe	4 ± 2,6 pourcentage de la dose injectée par gramme d'organe	3,6 ± 0,4 pourcentage de la dose injectée par gramme d'organe	7,9 ± 0,5 pourcentage de la dose injectée par gramme d'organe	29,6 ± 4 pourcentage de la dose injectée par gramme d'organe	14 ± 2,6 pourcentage de la dose injectée par gramme d'organe	13 ± 1,3 pourcentage de la dose injectée par gramme d'organe	73,3 ± 10 pourcentage de la dose injectée par gramme d'organe	7 ± 0,7 pourcentage de la dose injectée par gramme d'organe	52,7 ± 4 pourcentage de la dose injectée par gramme d'organe	4,1 ± 0,4 pourcentage de la dose injectée par gramme d'organe	38,9 ± 5,3 pourcentage de la dose injectée par gramme d'organe	Coefficient de partage octanol-eau à pH 7 [2]: 6,7
CC(C)NCC(O)COc1ccc(OCOCC=CI)cc1 (racemic) [composé 10, 1-[4-(5-iodo-2-oxapent-4-ényloxy)phénoxy]3-isopropylaminopropan-2-ol]	7,2 ± 1,1 pourcentage de la dose injectée par gramme d'organe	14,8 ± 1 pourcentage de la dose injectée par gramme d'organe	10,2 ± 1,1 pourcentage de la dose injectée par gramme d'organe	14 ± 1,1 pourcentage de la dose injectée par gramme d'organe	6,3 ± 3,3 pourcentage de la dose injectée par gramme d'organe	10,7 ± 1,1 pourcentage de la dose injectée par gramme d'organe	28,4 ± 3,6 pourcentage de la dose injectée par gramme d'organe	1,7 ± 0,8 pourcentage de la dose injectée par gramme d'organe	144,52 pourcentage de la dose injectée par gramme d'organe	11,4 ± 5,1 pourcentage de la dose injectée par gramme d'organe	3,9 ± 0,2 pourcentage de la dose injectée par gramme d'organe	9 ± 0,2 pourcentage de la dose injectée par gramme d'organe	2,3 ± 7 pourcentage de la dose injectée par gramme d'organe	9,1 ± 0,4 pourcentage de la dose injectée par gramme d'organe	15 ± 1,5 pourcentage de la dose injectée par gramme d'organe	60 ± 10 pourcentage de la dose injectée par gramme d'organe	9,5 ± 2,3 pourcentage de la dose injectée par gramme d'organe	58 ± 4 pourcentage de la dose injectée par gramme d'organe	5,3 ± 0,15 pourcentage de la dose injectée par gramme d'organe	33 ± 14 pourcentage de la dose injectée par gramme d'organe	Biodistribution Coeur ([1]; 30'): 3,1 ± 0,15 pourcentage de la dose injectée par gramme d'organe; Biodistribution Foie ([1]; 30'): 7,2 ± 0,8 pourcentage de la dose injectée par gramme d'organe; Biodistribution Poumon ([1]; 30'): 22 ± 4 pourcentage de la dose injectée par gramme d'organe; Biodistribution Rein ([1]; 30'): 7,6 ± 0,2 pourcentage de la dose injectée par gramme d'organe; Coefficient de partage octanol-eau à pH 7 [2]: 13,2
CC(C)NCC(O)c1ccc(O)c(O)c1 (stereo not shown) [Isoprenaline]																					DP/dt max ([3]; Isoprénaline (10^e min), isoprénaline 10^-8M alone): 2535±1233 mmHg/min; DP/dt max [3, 4]: 2398±1088 mmHg/min; augmentation de la dP/dt max par rapport à la préperfusion ([3]; isoprénaline seule 10^-8M): 254%
CC(C)NCC(O)COc1cccc2ccccc12 (stereo not shown) [propranolol]																					DP/dt max [3, 4]: 814±240 mmHg/min; effect on the action of isoprénaline on dP/dt max ([3]; isoprénaline 10^-8M + molecule 10^-6M): revient à la valeur basale

— EP0767778B1, “1-PHENOXY-3-N-ALKYLAMINOPROPAN-2-OL HALOGEN DERIVATIVES USEFUL AS MYOCARDIAL beta [sequence] RECEPTOR MARKERS AND AS beta-BLOCKING AGENTS” (CIS BIO INTERNATIONAL, priority 1994, dated 1996)
